Where “and” joins values, the source holds several entries; their conditions need not be identical. Equal entries are not always repeated.
Legend:
[1] = test system: E. coli O157:H7; test: E. coli O157:H7 inactivation by free chlorine in the micro-fluidic mixer (MPN enumeration); format: cell-based, Escherichia coli O157:H7 (RM4406, ATCC 700728)
[2] = test system: E. coli; test: Decimal reduction time (D-value) calculated from the Watson and Hom inactivation models; set-up: species or system Escherichia coli O157:H7
Text: Kinetic modeling was also applied to simplify the complicated disinfection phenomena of produce wash system. Three models that are commonly used for studying bacterial disinfection kinetics with chemical-based disinfectant, including the Chick-Watson Model, the Hom Model, and the Selleck Model.
Watson developed an empirical logarithmic equation to relate the inactivation constant (k) to disinfectant concentration (C) and reaction time (t):
The Hom model is a generalized empirical equation of the Chick-Watson model considering chlorine disinfection as a pseudo first-order reaction:
The D-value here was calculated based on the empirical models developed in this study, namely the Watson model (equation 3) and the Hom model (equation 5). […] By increasing chlorine concentration to […], the D-value reduces to […] respectively.

Q: How did the “contact time to achieve a 5-log reduction” value ([1]; 1 mg/L free chlorine) turn out when `OCl` [free chlorine, hypochlorous acid] was run?
A: more than 1.2 second

Q: And the “log reduction of E. coli O157:H7” value ([1]; 1.0 mg/L free chlorine, 0.25 second contact, suspension 1×10^8 CFU/mL)?
A: 0.14 log

Q: And the “log reduction of E. coli O157:H7” value ([1]; 1.0 mg/L free chlorine, 1.00 second contact, suspension 1×10^8 CFU/mL)?
A: 4.97 log

Q: What about the “contact time to achieve a 5-log reduction” value ([1]; 5 mg/L free chlorine) of the same compound?
A: 0.50 second

Q: What about the “contact time to achieve a 5-log reduction” value ([1]; 10 mg/L free chlorine) of the same compound?
A: 0.25 second and 0.2 second

Q: And the “log reduction of E. coli O157:H7” value ([1]; 10.0 mg/L free chlorine, 0.25 second contact)?
A: 5.77 log

Q: What about the “contact time to achieve a 5-log reduction” value ([1]; 10 mg/L free chlorine, listed as chlorine) of the same compound?
A: 0.2 second

Q: And the “contact time to achieve a 5-log reduction” value ([1]; 20 mg/L free chlorine)?
A: 0.25 second

Q: And the “bacterial survival in collected effluent (total pathogen inactivation control)” value ([1]; chlorine 50 mg/L, pathogen solution 10^8 MPN/mL, without dechlorinating solution)?
A: no bacterial survival detected

Q: And the “D-value (decimal reduction time, 90% / one log reduction)” value ([2]; 1 mg/L free chlorine)?
A: 28.06 milliseconds

Q: What about the “D-value (decimal reduction time, 90% / one log reduction)” value ([2]; chlorine 5 (so in the source)) of the same compound?
A: 5.72 milliseconds

Q: What about the “D-value (decimal reduction time, 90% / one log reduction)” value ([2]; chlorine 10 (so in the source)) of the same compound?
A: 2.87 milliseconds

Q: And the “D-value (decimal reduction time, 90% / one log reduction)” value ([2]; chlorine 20 (so in the source))?
A: 1.43 milliseconds

Source: patent US20160068883A1, “MICRO-FLUIDIC MIXER AND METHOD OF DETERMINING PATHOGEN INACTIVATION VIA ANTIMICROBIAL SOLUTIONS” (The United States of America, as represented by the …, priority 2014, published 2016)
